The test system of data set [1] is HCT-116 (human colon carcinoma) cells. Description: In vitro cytotoxicity. Format: cell-based. To be noted: HCT-116, 72 hours. As for the experimental part:
(§1) B16-FIO, Moser and HCT-116 cells were harvested and implanted into wells of 96-well microtiter plate with test materials at the inoculum sizes of 3×10^4, 6×10^4 and 6×10^4 cell/ml, respectively. They were incubated at 37° C. in a humidified atmosphere of 5% carbon dioxide and 95% air for 72 hours. The cytotoxicity against the tumor cells was determined colorimetrically at 540 nm after staining viable cells.

Data set [2] deals with B16-F10 (murine melanoma) cells. Briefly: In vitro cytotoxicity. To be noted: Mus musculus; B16-F10, 72 hours. Format: cell-based. As for the experimental part: as §1
Data set [3] relates to Moser (human colorectal carcinoma) cells. Briefly: In vitro cytotoxicity. Format: cell-based. To be noted: 72 hours. The protocol:
as §1

Data set [4] relates to RNA synthesis in B16-F10 melanoma cells. Briefly: Inhibition of macromolecule synthesis in B16-F10 melanoma cells: RNA. Format: cell-based, murine. To be noted: Mus musculus, 14C-uridine, 4 hours. The protocol:
(§2) Inhibitory effects of BU-4146T on the macromolecule (DNA, RNA and protein) synthesis were determined in cultured B16-FlO melanoma cells. B16-FlO cells (10^5 cells/ml) were incubated with the compound at 37° C. for 3.5 hours (for DNA synthesis) or 4 hours (for RNA and protein synthesis). Labelled presursor, ^3 H-thymidine, ^14 C-uridine or ^3 H-leucine was added to the culture and further incubated for 30 minutes (for DNA) or 60 minutes (for RNA and protein). After washing with chilled 5% trichloroacetic acid solution, the radio activity incorporated into the acid-insoluble fraction of the tumor cells was determined by a liquid scintillation counter.

Another data set in a line: Solubility. Format: physicochemical.
A further data set has as its system Piricularia oryzae. Description: microbe, parasite or virus in culture. Format: cell-based.
A further data set deals with Gram-positive bacteria. Description: Antibacterial activity by serial agar dilution method. Format: cell-based. To be noted: at 100 mcg/ml. The protocol: (§3) The minimum inhibitory concentrations (MICs) of BU-4146T were determined against various bacteria and fungi by the serial agar dilution method. Nutrient agar (Eiken) was used for bacteria and Sabouraud dextrose agar (Difco) for fungi. The inoculum size was adjusted to 10^2 -10^4 cfu/ml for bacteria and 10^3 cfu/ml for fungi.
(In general: In agar dilution, organisms are placed on agar that contains the substance at set levels.)

For a further data set, the system named is Gram-negative bacteria. The description is as above. Format: cell-based. To be noted: at 100 mcg/ml. The protocol: as §3
The next data set relates to fungi. Description: Antifungal activity as a whole (serial agar dilution). Format: cell-based. To be noted: versus streptimidone. The protocol: as §3
Data set [5] deals with DNA synthesis in B16-F10 melanoma cells. Description: Inhibition of macromolecule synthesis in B16-F10 melanoma cells: DNA. Format: cell-based, murine. To be noted: for IC50: Mus musculus, B16-F10, 3H-thymidine, 3.5 hours. The protocol: as §2
The test system of another data set is Petriellidium boydii. Description: Antifungal MIC by serial agar dilution method. Format: cell-based. To be noted: Scedosporium boydii; strain IF08078. As for the experimental part:
as §3

Another data set has as its system Fusarium moniliforme. Description: Antifungal MIC by serial agar dilution method. Format: cell-based. To be noted: Fusarium verticillioides; strain A2284. The protocol: as §3
The test system of the next data set is Aspergillus flavus. Description: Antifungal MIC by serial agar dilution method. Format: cell-based. To be noted: strain FA21436. The protocol:
as §3

For the next data set, the system named is Cryptococus neoformans. Description: Antifungal MIC by serial agar dilution method. Format: cell-based. To be noted: Cryptococcus neoformans. The protocol: as §3
Another data set has as its system Aspergillus fumigatus. Briefly: Antifungal MIC by serial agar dilution method. Format: cell-based. The protocol:
as §3

In the next data set the test system is Mucor spinosus. Briefly: Antifungal MIC by serial agar dilution method. To be noted: strain IF05317. Format: cell-based. The protocol:
as §3

Another data set has as its system Candida albicans. Briefly: Antifungal MIC by serial agar dilution method. Format: cell-based. The protocol: as §3
Data set [6] has as its system Trichophyton mentagrophytes. Briefly: Antifungal MIC by serial agar dilution method. Format: cell-based. As for the experimental part: as §3
For the next data set, the system named is Sporothrix schenckii. Briefly: Antifungal MIC by serial agar dilution method. Format: cell-based. To be noted: strain IF08158. The protocol:
as §3

A further data set has as its system Blastomyces dermatidis. Description: Antifungal MIC by serial agar dilution method. Format: cell-based. To be noted: strain IF08144. The protocol:
as §3

Data set [7] deals with murine and human tumor cells (B16-F10, Moser, HCT-116). Briefly: In vitro cytotoxicity, comparison over the tumor cell lines. Format: cell-based. To be noted: versus mitomycin C; approximately. The protocol: as §1
Data set [8] deals with protein synthesis in B16-F10 melanoma cells. Briefly: Inhibition of macromolecule synthesis in B16-F10 melanoma cells: protein. Format: cell-based, murine. To be noted: Mus musculus, 3H-leucine, 4 hours. The protocol: as §2
The nature of data set [9]: Cytotoxicity of hydrogenated derivative. Format: cell-based.
Setting [10] is: Trichophyton mentagrophytes, strain D155, read-out: MIC.

≈ marks a conversion by molar mass, not a printed value. Like-named read-outs stand apart in the source and are kept apart here.

For the compound `C/C(=C\C(C)C(=O)CC(O)CC1CC(=O)NC(=O)C1)C1OC(=O)/C=C/CC/C=C/C=C\C1C` (stereo not shown) [BU-4146T], the IC50 in data set [1] was 0.014 µg/mL (≈ 0.0306 µM); in data set [2] it was 0.03 µg/mL (≈ 0.0656 µM); in [3], 0.047 µg/mL (≈ 0.103 µM); in data set [4], 4.2 µg/mL (≈ 9.18 µM); in data set [5] it was 0.023 µg/mL (≈ 0.0503 µM); in [8], 0.024 µg/mL (≈ 0.0525 µM). Further, the solubility in n-hexane entry in “Solubility” (n-hexane) is recorded as “practically insoluble”. Also, the “solubility in acetonitrile, n-butanol, methanol, ethyl acetate, chloroform and dimethyl sulfoxide” value in “Solubility” (organic solvents) is recorded as “readily soluble”. Besides, the solubility in water entry in the data set “Solubility” (water) is recorded as “practically insoluble”. Also, the MIC in the data set on Piricularia oryzae amounted to 3.1 µg/mL (≈ 6.77 µM); in the data set with Petriellidium boydii, 3.1 µg/mL (≈ 6.77 µM); against Fusarium moniliforme it was 0.8 µg/mL (≈ 1.75 µM); with Aspergillus flavus, 3.1 µg/mL (≈ 6.77 µM); in the data set with Cryptococus neoformans (strain D49), 3.1 µg/mL (≈ 6.77 µM); in the data set on Cryptococus neoformans (strain IAM4514), 3.1 µg/mL (≈ 6.77 µM). Moreover, the MIC with Aspergillus fumigatus (strain IAM2034) was 1.6 µg/mL (≈ 3.5 µM); in the data set with Aspergillus fumigatus (strain IAM2530), 0.8 µg/mL (≈ 1.75 µM); against Mucor spinosus, 1.6 µg/mL (≈ 3.5 µM); with Candida albicans (strain A9540), more than 100 µg/mL; against Candida albicans (strain IAM4888), more than 100 µg/mL; in data set [6] (setting [10]) it was 100 µg/mL (≈ 219 µM). Further, the values for the MIC (in [6] (strain No. 4329); against Sporothrix schenckii; against Blastomyces dermatidis) were 100 µg/mL (≈ 219 µM), 100 µg/mL (≈ 219 µM) and 12.5 µg/mL (≈ 27.3 µM), respectively. In addition, the “inhibitory activity against Gram-positive bacteria” value in the data set with Gram-positive bacteria is “did not show inhibitory activity”. Besides, in the data set on Gram-negative bacteria, the “inhibitory activity against Gram-negative bacteria” value is “did not show inhibitory activity”. Further, in the data set on fungi, the “antifungal activity, times more potent than streptimidone” value is listed as 30-100 times. For the same compound, the “potency in DNA and protein synthesis, times higher than in RNA synthesis” value in data set [5] (in terms of IC50, DNA and protein versus RNA) was approximately 200 times. In data set [7], the “IC50 values, times superior to those of mitomycin C” value is 20-60 times.

As to `CO[C@@]12[C@H](COC(N)=O)C3=C(C(=O)C(C)=C(N)C3=O)N1C[C@@H]1N[C@@H]12` [Mitomycin C, reference compound], the IC50 stood at 11 µg/mL (≈ 32.9 µM) in data set [4], 1.6 µg/mL (≈ 4.79 µM) in data set [5] and 60 µg/mL (≈ 179 µM) in data set [8].

For the compound `C=C/C(C)=C/[C@H](C)C(=O)C[C@H](O)CC1CC(=O)NC(=O)C1` [Streptimidone, reference compound], the MIC is more than 100 µg/mL in the data set with Piricularia oryzae (read-out: MIC); more than 100 µg/mL against Petriellidium boydii; 50 µg/mL (≈ 170 µM) in the data set on Fusarium moniliforme; more than 100 µg/mL with Aspergillus flavus; 50 µg/mL (≈ 170 µM) against Cryptococus neoformans (strain D49); 50 µg/mL (≈ 170 µM) in the data set on Cryptococus neoformans (strain IAM4514). In addition, the MIC (in the data set on Aspergillus fumigatus (strain IAM2034); against Aspergillus fumigatus (strain IAM2530); with Mucor spinosus; against Candida albicans (strain A9540); with Candida albicans (strain IAM4888); in data set [6] (setting [10])) was more than 100 µg/mL each time. Also, the MIC (in data set [6] (strain No. 4329); against Sporothrix schenckii; against Blastomyces dermatidis) was more than 100 µg/mL throughout.

As to `C/C(=C\C(C)C(=O)CC(O)CC1CC(=O)NC(=O)C1)C1OC(=O)CCCCCCCCC1C` (stereo not shown) [hexahydro-BU-4146T], the cytotoxicity entry in data set [9] (in words) is listed as “weak cytotoxicity”. The “cytotoxicity, times weaker than that of BU-4146T” value in data set [9] (versus BU-4146T) is reported as “about one hundred”.

Usually IC50 stands for the concentration that inhibits the measured activity by half. A low value points to greater potency in that assay.

Values taken from patent US5002959A, “BU-4146T antibiotic” (Bristol-Myers Squibb Company, priority 1989, dated 1991).
